Test results from the supplement of paper PMC9912026.

Test system: A375_aEGFR2
Test: pERK immunofluorescence normalised to no-drug reference (=1); higher = more ERK phosphorylation (less pathway inhibition)
Details: drug treatment time 24 h, EGF time 8 h
Protocol: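 A375 CRISPRa-EGFR (A375_aEGFR2) or HT29 cells were treated with two-drug dose combinations (vemurafenib, LY3009120, cobimetinib) for 24 h, then stimulated with EGF (100 ng/mL) or mock medium for 8 h. pERK (T202/Y204) was measured by immunofluorescence as the cytosolic population average, normalised to an untreated no-drug reference of the block (=1). Averages of 2 technical replicates. A375 in 5% FBS, HT29 in 10% FBS.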

CCCS(=O)(=O)Nc1ccc(F)c(C(=O)c2c[nH]c3ncc(-c4ccc(Cl)cc4)cc23)c1F [Vemurafenib] + CNc1ncc2cc(-c3cc(NC(=O)NCCC(C)(C)C)c(F)cc3C)c(C)nc2n1 [LY3009120]
pERK immunofluorescence normalised
Details	drug A concentration 0 µM	drug A concentration 0.000316228 µM	drug A concentration 0.001 µM	drug A concentration 0.00316228 µM	drug A concentration 0.01 µM	drug A concentration 0.0316228 µM
drug B concentration 0 µM, EGF 0 ng/mL	–	1.03	1	0.995	0.897	0.695
drug B concentration 0 µM, EGF 100 ng/mL	–	0.99	1.02	0.977	0.969	0.896
drug B concentration 0.0001 µM, EGF 0 ng/mL	1.02	1.03	1.01	1.05	0.912	0.759
drug B concentration 0.0001 µM, EGF 100 ng/mL	1.04	0.996	0.999	0.996	0.967	0.9
drug B concentration 0.000316228 µM, EGF 0 ng/mL	1.03	1.03	0.997	0.961	0.891	0.727
drug B concentration 0.000316228 µM, EGF 100 ng/mL	1.07	1.02	0.982	1.04	0.96	0.935
drug B concentration 0.001 µM, EGF 0 ng/mL	1.06	0.876	0.96	0.922	0.889	0.745
drug B concentration 0.001 µM, EGF 100 ng/mL	1.02	0.959	0.953	0.953	0.91	0.852
drug B concentration 0.00316228 µM, EGF 0 ng/mL	0.865	0.793	0.806	0.781	0.732	0.669
drug B concentration 0.00316228 µM, EGF 100 ng/mL	0.989	0.849	0.892	0.836	0.789	0.768
drug B concentration 0.01 µM, EGF 0 ng/mL	0.696	0.488	0.501	0.534	0.471	0.457
drug B concentration 0.01 µM, EGF 100 ng/mL	0.807	0.648	0.635	0.641	0.625	0.635
drug B concentration 0.0316228 µM, EGF 0 ng/mL	0.376	0.263	0.278	0.27	0.28	–
drug B concentration 0.0316228 µM, EGF 100 ng/mL	0.565	0.454	0.468	0.456	0.469	–
drug B concentration 0.1 µM, EGF 0 ng/mL	0.193	0.168	0.168	0.167	0.165	–
drug B concentration 0.1 µM, EGF 100 ng/mL	0.368	0.312	0.331	0.305	0.311	–
drug B concentration 0.316228 µM, EGF 0 ng/mL	0.157	0.151	0.148	0.145	0.15	–
drug B concentration 0.316228 µM, EGF 100 ng/mL	0.264	0.206	0.215	0.212	0.205	–
drug B concentration 1 µM, EGF 0 ng/mL	0.149	0.15	0.15	0.15	0.153	–
drug B concentration 1 µM, EGF 100 ng/mL	0.175	0.155	0.156	0.154	0.157	–
drug B concentration 3.16228 µM, EGF 0 ng/mL	0.153	0.15	0.149	0.149	0.148	–
drug B concentration 3.16228 µM, EGF 100 ng/mL	0.149	0.14	0.134	0.139	0.138	–
